In patent publication USRE49575E1, “Method for the preparation of (4S)-4-(4-cyano-2-methoxyphenyl)-5-ethoxy-2,8-dimethyl-l,4-dihydro-1-6-naphthyridine-3-carbox-amide and the purification thereof for use as an active pharmaceutical ingredient” (Bayer Pharma Aktiengesellschaft, priority 2014, dated 2023):

What was measured:
Type in all cases: physicochemical
[1] = Storage stability of polymorph I
[2] = Stability and moisture absorption: storage at 85% and 97% rel. humidity, evaluated by DSC, TGA and XRPD; settings: for mass change: after 12 months
Protocol: Stability and Moisture Absorption Samples of compound of the formula (I) in crystalline form of polymorph I were stored at 85% and 97% rel. humidity (25° C.). The samples were evaluated after 12 months by DSC, TGA and XRPD. After 12 months, a mass change of <0.1% is observed in both cases. […] According to DSC, TGA and XRPD, no difference exists in compound of the formula (I) in crystalline form of polymorph I.

[3] = TGA, loss of mass on heating; settings: up to a temperature of 175° C.
Protocol: No other phase transitions were observed. A loss of mass of ca. 0.1% was observed up to a temperature of 175° C.

[4] = 85% and 97% rel. humidity (25° C.), 12 months

- stability properties ([1]; even at high atmospheric humidity): very good stability properties
- storage time without any problem ([1]; solid, crystalline polymorph I): > 2 years
- absorption of water [2, 4]: no significant absorption of water
- difference according to DSC, TGA and XRPD after storage [2, 4]: no difference
- mass change ([2]; stored at 85% rel. humidity (25° C.)): < 0.1%
- mass change ([2]; stored at 97% rel. humidity (25° C.)): < 0.1%
- loss of mass [3]: ca. 0.1%
Compound: CCOc1ncc(C)c2c1[C@H](c1ccc(C#N)cc1OC)C(C(N)=O)=C(C)N2 [(4S)-4-(4-cyano-2-methoxyphenyl)-5-ethoxy-2,8-dimethyl-1,4-dihydro-1,6-naphthyridine-3-carboxamide]
